Assay results taken from ChEMBL document CHEMBL2311426, “Synthesis and antibacterial activity of novel water-soluble nocathiacin analogs” (Bioorg Med Chem Lett, 2013).
In brackets after ≈: the same amount, converted by molar mass.

How the values were obtained:
[1] = Aqueous solubility of the compound in water containing 5% dextrose at pH 4; format: physicochemical
[2] = system: Enterococcus faecalis; assay: Antibacterial activity against Enterococcus faecalis C21560 by turbidity method; format: functional; details: read-out: MIC100
[3] = system: Staphylococcus aureus; assay: Antibacterial activity against Staphylococcus aureus MB2865 by turbidity method; format: functional; details: read-out: MIC100
[4] = system: Streptococcus pneumoniae; assay: Antibacterial activity against Streptococcus pneumoniae CL2883 by turbidity method; format: functional; details: read-out: MIC100

Row | MIC [2] [µg/mL] | MIC [3] [µg/mL] | MIC [4] [µg/mL] | Compound | solubility [1] [µg/mL]
1 |  |  |  | CO/C(C)=C1/NC(=O)[C@H]([C@@H](C)O)NC(=O)c2csc(n2)-c2cc(O)c(-c3nc(CNC(=O)NCCN(C)C)cs3)nc2-c2csc(n2)[C@@H]2COC(=O)c3c4c5c(cccc5n3O)COC(=O)[C@@H](O[C@H]3C[C@](C)(O)[C@H](N(C)C)[C@H](C)O3)[C@@H](OC4)[C@H](NC(=O)c3csc1n3)c1nc(cs1)C(=O)N2.O=C(O)C(F)(F)F | > 10000
2 |  |  |  | CO/C(C)=C1/NC(=O)[C@H]([C@@H](C)O)NC(=O)c2csc(n2)-c2cc(O)c(-c3nc(CNC(=O)CCN4CCOCC4)cs3)nc2-c2csc(n2)[C@@H]2COC(=O)c3c4c5c(cccc5n3O)COC(=O)[C@@H](O[C@H]3C[C@](C)(O)[C@H](N(C)C)[C@H](C)O3)[C@@H](OC4)[C@H](NC(=O)c3csc1n3)c1nc(cs1)C(=O)N2.O=C(O)C(F)(F)F | > 10000
3 |  |  |  | CO/C(C)=C1/NC(=O)[C@H]([C@@H](C)O)NC(=O)c2csc(n2)-c2cc(O)c(-c3nc(CNC(=O)CN4CCN(C)CC4)cs3)nc2-c2csc(n2)[C@@H]2COC(=O)c3c4c5c(cccc5n3O)COC(=O)[C@@H](O[C@H]3C[C@](C)(O)[C@H](N(C)C)[C@H](C)O3)[C@@H](OC4)[C@H](NC(=O)c3csc1n3)c1nc(cs1)C(=O)N2.O=C(O)C(F)(F)F | > 10000
4 |  |  |  | CO/C(C)=C1/NC(=O)[C@H]([C@@H](C)O)NC(=O)c2csc(n2)-c2cc(O)c(-c3nc(CNC(=O)CN4CCOCC4)cs3)nc2-c2csc(n2)[C@@H]2COC(=O)c3c4c5c(cccc5n3O)COC(=O)[C@@H](O[C@H]3C[C@](C)(O)[C@H](N(C)C)[C@H](C)O3)[C@@H](OC4)[C@H](NC(=O)c3csc1n3)c1nc(cs1)C(=O)N2.O=C(O)C(F)(F)F | > 10000
5 |  |  |  | CO/C(C)=C1/NC(=O)[C@H]([C@@H](C)O)NC(=O)c2csc(n2)-c2cc(O)c(-c3nc(CNC(=O)CN(C)C)cs3)nc2-c2csc(n2)[C@@H]2COC(=O)c3c4c5c(cccc5n3O)COC(=O)[C@@H](O[C@H]3C[C@](C)(O)[C@H](N(C)C)[C@H](C)O3)[C@@H](OC4)[C@H](NC(=O)c3csc1n3)c1nc(cs1)C(=O)N2.O=C(O)C(F)(F)F | > 10000
6 |  |  |  | CO/C(C)=C1/NC(=O)[C@H]([C@@H](C)O)NC(=O)c2csc(n2)-c2cc(O)c(-c3nc(CNCc4cncnc4)cs3)nc2-c2csc(n2)[C@@H]2COC(=O)c3c4c5c(cccc5n3O)COC(=O)[C@@H](O[C@H]3C[C@](C)(O)[C@H](N(C)C)[C@H](C)O3)[C@@H](OC4)[C@H](NC(=O)c3csc1n3)c1nc(cs1)C(=O)N2.O=C(O)C(F)(F)F | > 10000
7 |  |  |  | CO/C(C)=C1/NC(=O)[C@H]([C@@H](C)O)NC(=O)c2csc(n2)-c2cc(O)c(-c3nc(CN(CCO)CCO)cs3)nc2-c2csc(n2)[C@@H]2COC(=O)c3c4c5c(cccc5n3O)COC(=O)[C@@H](O[C@H]3C[C@](C)(O)[C@H](N(C)C)[C@H](C)O3)[C@@H](OC4)[C@H](NC(=O)c3csc1n3)c1nc(cs1)C(=O)N2.O=C(O)C(F)(F)F | > 10000
8 |  |  |  | CO/C(C)=C1/NC(=O)[C@H]([C@@H](C)O)NC(=O)c2csc(n2)-c2cc(O)c(-c3nc(CNCC(C)(C)N4CCCCC4)cs3)nc2-c2csc(n2)[C@@H]2COC(=O)c3c4c5c(cccc5n3O)COC(=O)[C@@H](O[C@H]3C[C@](C)(O)[C@H](N(C)C)[C@H](C)O3)[C@@H](OC4)[C@H](NC(=O)c3csc1n3)c1nc(cs1)C(=O)N2.O=C(O)C(F)(F)F | > 10000
9 |  |  |  | CO/C(C)=C1/NC(=O)[C@H]([C@@H](C)O)NC(=O)c2csc(n2)-c2cc(O)c(-c3nc(CNCCO)cs3)nc2-c2csc(n2)[C@@H]2COC(=O)c3c4c5c(cccc5n3O)COC(=O)[C@@H](O[C@H]3C[C@](C)(O)[C@H](N(C)C)[C@H](C)O3)[C@@H](OC4)[C@H](NC(=O)c3csc1n3)c1nc(cs1)C(=O)N2.O=C(O)C(F)(F)F | > 10000
10 |  |  |  | CO/C(C)=C1/NC(=O)[C@H]([C@@H](C)O)NC(=O)c2csc(n2)-c2cc(O)c(-c3nc(CNCC(O)CO)cs3)nc2-c2csc(n2)[C@@H]2COC(=O)c3c4c5c(cccc5n3O)COC(=O)[C@@H](O[C@H]3C[C@](C)(O)[C@H](N(C)C)[C@H](C)O3)[C@@H](OC4)[C@H](NC(=O)c3csc1n3)c1nc(cs1)C(=O)N2.O=C(O)C(F)(F)F (stereo not given in full) | > 10000
11 |  |  |  | CO/C(C)=C1/NC(=O)[C@H]([C@@H](C)O)NC(=O)c2csc(n2)-c2cc(O)c(-c3nc(CNCC[C@H](O)[C@H](O)CO)cs3)nc2-c2csc(n2)[C@@H]2COC(=O)c3c4c5c(cccc5n3O)COC(=O)[C@@H](O[C@H]3C[C@](C)(O)[C@H](N(C)C)[C@H](C)O3)[C@@H](OC4)[C@H](NC(=O)c3csc1n3)c1nc(cs1)C(=O)N2.O=C(O)C(F)(F)F | > 10000
12 |  |  |  | CO/C(C)=C1/NC(=O)[C@H]([C@@H](C)O)NC(=O)c2csc(n2)-c2cc(O)c(-c3nc(CN(C)C)cs3)nc2-c2csc(n2)[C@@H]2COC(=O)c3c4c5c(cccc5n3O)COC(=O)[C@@H](O[C@H]3C[C@](C)(O)[C@H](N(C)C)[C@H](C)O3)[C@@H](OC4)[C@H](NC(=O)c3csc1n3)c1nc(cs1)C(=O)N2.O=C(O)C(F)(F)F | > 10000
13 |  |  |  | CO/C(C)=C1/NC(=O)[C@H]([C@@H](C)O)NC(=O)c2csc(n2)-c2cc(O)c(-c3nc(CN)cs3)nc2-c2csc(n2)[C@@H]2COC(=O)c3c4c5c(cccc5n3O)COC(=O)[C@@H](O[C@H]3C[C@](C)(O)[C@H](N(C)C)[C@H](C)O3)[C@@H](OC4)[C@H](NC(=O)c3csc1n3)c1nc(cs1)C(=O)N2.O=C(O)C(F)(F)F | > 10000
14 | 0.5 (≈ 0.335 µM) | 0.125 (≈ 0.0838 µM) |  | CO/C(C)=C1/NC(=O)[C@H]([C@@H](C)O)NC(=O)c2csc(n2)-c2cc(O)c(-c3nc(CNC(=O)NCCc4cnc[nH]4)cs3)nc2-c2csc(n2)[C@@H]2COC(=O)c3c4c5c(cccc5n3O)COC(=O)[C@@H](O[C@H]3C[C@](C)(O)[C@H](N(C)C)[C@H](C)O3)[C@@H](OC4)[C@H](NC(=O)c3csc1n3)c1nc(cs1)C(=O)N2 | 
15 | 0.5 (≈ 0.34 µM) | 0.125 (≈ 0.0851 µM) |  | CO/C(C)=C1/NC(=O)[C@H]([C@@H](C)O)NC(=O)c2csc(n2)-c2cc(O)c(-c3nc(CNC(=O)NCCN(C)C)cs3)nc2-c2csc(n2)[C@@H]2COC(=O)c3c4c5c(cccc5n3O)COC(=O)[C@@H](O[C@H]3C[C@](C)(O)[C@H](N(C)C)[C@H](C)O3)[C@@H](OC4)[C@H](NC(=O)c3csc1n3)c1nc(cs1)C(=O)N2 | 
16 | 0.5 (≈ 0.34 µM) | 0.06 (≈ 0.0408 µM) | 0.015 (≈ 0.0102 µM) | CO/C(C)=C1/NC(=O)[C@H]([C@@H](C)O)NC(=O)c2csc(n2)-c2cc(O)c(-c3nc(CNC(=O)NCC(O)CO)cs3)nc2-c2csc(n2)[C@@H]2COC(=O)c3c4c5c(cccc5n3O)COC(=O)[C@@H](O[C@H]3C[C@](C)(O)[C@H](N(C)C)[C@H](C)O3)[C@@H](OC4)[C@H](NC(=O)c3csc1n3)c1nc(cs1)C(=O)N2 (stereo not given in full) | 
17 | 0.0075 (≈ 0.00526 µM) | 0.0075 (≈ 0.00526 µM) | 0.00457 (≈ 0.00321 µM) | CO/C(C)=C1/NC(=O)[C@H]([C@@H](C)O)NC(=O)c2csc(n2)-c2cc(O)c(-c3nc(CNC(=O)C(N)=O)cs3)nc2-c2csc(n2)[C@@H]2COC(=O)c3c4c5c(cccc5n3O)COC(=O)[C@@H](O[C@H]3C[C@](C)(O)[C@H](N(C)C)[C@H](C)O3)[C@@H](OC4)[C@H](NC(=O)c3csc1n3)c1nc(cs1)C(=O)N2 | 
18 | > 1 | > 1 |  | CO/C(C)=C1/NC(=O)[C@H]([C@@H](C)O)NC(=O)c2csc(n2)-c2cc(O)c(-c3nc(CNC(=O)C(NC(N)=O)c4ccc(O)cc4)cs3)nc2-c2csc(n2)[C@@H]2COC(=O)c3c4c5c(cccc5n3O)COC(=O)[C@@H](O[C@H]3C[C@](C)(O)[C@H](N(C)C)[C@H](C)O3)[C@@H](OC4)[C@H](NC(=O)c3csc1n3)c1nc(cs1)C(=O)N2 (stereo not given in full) | 
19 | 0.03 (≈ 0.0201 µM) | 0.06 (≈ 0.0401 µM) | 0.00046 (≈ 0.000308 µM) | CO/C(C)=C1/NC(=O)[C@H]([C@@H](C)O)NC(=O)c2csc(n2)-c2cc(O)c(-c3nc(CNCC(C)(C)N4CCOCC4)cs3)nc2-c2csc(n2)[C@@H]2COC(=O)c3c4c5c(cccc5n3O)COC(=O)[C@@H](O[C@H]3C[C@](C)(O)[C@H](N(C)C)[C@H](C)O3)[C@@H](OC4)[C@H](NC(=O)c3csc1n3)c1nc(cs1)C(=O)N2 | 
20 | 0.25 (≈ 0.175 µM) | 0.06 (≈ 0.042 µM) | 0.0075 (≈ 0.00525 µM) | CO/C(C)=C1/NC(=O)[C@H]([C@@H](C)O)NC(=O)c2csc(n2)-c2cc(O)c(-c3nc(CNCC(O)CO)cs3)nc2-c2csc(n2)[C@@H]2COC(=O)c3c4c5c(cccc5n3O)COC(=O)[C@@H](O[C@H]3C[C@](C)(O)[C@H](N(C)C)[C@H](C)O3)[C@@H](OC4)[C@H](NC(=O)c3csc1n3)c1nc(cs1)C(=O)N2 (stereo not given in full) | 
21 | 1 (≈ 0.679 µM) | 0.125 (≈ 0.0849 µM) | 0.015 (≈ 0.0102 µM) | CO/C(C)=C1/NC(=O)[C@H]([C@@H](C)O)NC(=O)c2csc(n2)-c2cc(O)c(-c3nc(CNCC[C@H](O)[C@H](O)CO)cs3)nc2-c2csc(n2)[C@@H]2COC(=O)c3c4c5c(cccc5n3O)COC(=O)[C@@H](O[C@H]3C[C@](C)(O)[C@H](N(C)C)[C@H](C)O3)[C@@H](OC4)[C@H](NC(=O)c3csc1n3)c1nc(cs1)C(=O)N2 | 

Row | Compound | MIC [2] [µg/mL] | MIC [3] [µg/mL] | MIC [4] [µg/mL] | solubility [1] [µg/mL]
22 | CO/C(C)=C1/NC(=O)[C@H]([C@@H](C)O)NC(=O)c2csc(n2)-c2cc(O)c(-c3nc(CN(CCO)CCO)cs3)nc2-c2csc(n2)[C@@H]2COC(=O)c3c4c5c(cccc5n3O)COC(=O)[C@@H](O[C@H]3C[C@](C)(O)[C@H](N(C)C)[C@H](C)O3)[C@@H](OC4)[C@H](NC(=O)c3csc1n3)c1nc(cs1)C(=O)N2 | 0.12 (≈ 0.0832 µM) | 0.06 (≈ 0.0416 µM) | 0.0075 (≈ 0.0052 µM) | 
23 | C=C(NC(=O)c1csc(-c2nc3c(cc2O)-c2nc(cs2)C(=O)N[C@@H]([C@@H](C)O)C(=O)N/C(=C(\C)OC)c2nc(cs2)C(=O)N[C@@H]2c4nc(cs4)C(=O)N[C@@H](COC(=O)c4c5c6c(cccc6n4O)COC(=O)[C@@H](O[C@H]4C[C@](C)(O)[C@H](N(C)C)[C@H](C)O4)[C@H]2OC5)c2nc-3cs2)n1)C(N)=O [MJ347-81F4 A] | 0.03 (≈ 0.0209 µM) | 0.007 (≈ 0.00487 µM) | 0.002 (≈ 0.00139 µM) | 
